In US8597618B1, “Dentifrice composition” (Toms's of Maine, Inc., priority 2012, dated 2013):
Where two headings read alike, the source gives them in different places.

Legend:
[1] = Foaming capability of individual surfactant components admixed with water and agitated; type: physicochemical; conditions: for Foaming ability: numerical score, 1 representing an excellent foamer and 5 a poor foamer
Protocol: The foaming ability was determined by a numerical score, 1 representing an excellent foamer and 5 representing a poor foamer

EpiOral ORL-200 model [2] = tested on: EpiOral ORL-200 model
Protocol: (§1) To evaluate the potential irritancy of the dentifrice formulae, surfactant components were diluted in water and tested using an EpiOral in Vitro Irritation Test Method, in particular the EpiOral ORL-200 model, a known model for testing irritant potential of dentifrice components.
(§2) In the EpiOral test, the dentifrice components were tested to determine the parameter “ET-50” which represents the time at which 50% of cells are viable: the higher the ET-50 time then the less irritating the material.
(§3) Dentifrice compositions incorporating different surfactant systems were also subjected to the EpiOral test.

EpiOral ORL-200 model [3] = assay: EpiOral in Vitro Irritation Test Method (EpiOral ORL-200 model); conditions: for ET-50 Time: time at which 50% of cells are viable, test terminated at 240 minutes
Protocol: as §1, §2, §3

Compound	foaming ability as compared to sodium lauryl sulfate ([1]; individual surfactant components, in words)	Foaming ability [1]	ET-50 Time (EpiOral ORL-200 model [2])	potential irritancy (EpiOral ORL-200 model [2])	ET-50 Time (EpiOral ORL-200 model [3]; surfactant component 1 wt % in water)	ET-50 Time (EpiOral ORL-200 model [3]; surfactant component 2 wt % in water)	potential irritancy (EpiOral ORL-200 model [3]; surfactant components in water at different concentrations, in words)
lauryl glucoside	significantly poorer	3	>240 min	very low			
CCCCCCCCCCCCOS(=O)(=O)[O-].[Na+] [Sodium lauryl sulfate, sodium lauryl sulfate]		1			115.4 min	48.3 min	high
